The record followed here is patent US7326732B2, “EP2 receptor agonists” (Pharmagene Laboratories Limited, priority 2004, dated 2008).

Some results are limits rather than exact numbers.

One test has as its target T1, human EP2 receptor (Homo sapiens, UniProt P43116).
T1 construct: expressed in transfected cells
The experiment in a line: Binding ability to human EP receptors ([3H]PGE2 displacement), EP2. The conditions noted are these: membranes expressing human EP2; [3H]PGE2 3 nM; Cheng-Prusoff; read-out: pKi (M) EP2 (converted). The method, then:
(§1) Membranes were prepared from cells stably transfected with human EP receptor cDNA. In brief, cells were cultured to confluency, scraped from culture flasks, and centrifuged (800 g, 8 minutes, 4° C.). Cells were twice washed in ice cold homogenisation buffer containing 10 mMTris-HCl, 1 mM EDTA.2Na, 250 mM sucrose, 1 mM PMSF, 0.3 mM indomethacin, pH 7.4, homogenised and re-centrifuged as before. The supernatant was stored on ice and pellets re-homogenised and re-spun. Supernatants were pooled and centrifuged at 40000 g, 10 minutes, 4° C. Resultant membrane pellets were stored at −80° C. until use. For assay, membranes expressing human EP4, EP3, EP2 or EP1 receptors were incubated in Millipore (MHVBN45) plates containing assay buffer, radiolabelled [^3H]PGE2 and 0.1 to 10 000 nM concentrations of compounds. Incubations were performed at suitable temperatures and for suitable times to allow equilibrium to be reached. Non-specific binding was determined in the presence of 10 uM PGE2. Bound and free radiolabel was separated by vacuum manifold filtration using appropriate wash buffers, and bound radiolabel was determined by scintillation counting. Constituents of each of the buffers are included in table 1 below. […] Raven Press, New York, 2nd edition.

In another test the target is T2, human EP4 receptor (Homo sapiens, UniProt P35408).
T2 construct: expressed in transfected cells
In words: Binding ability to human EP receptors ([3H]PGE2 displacement), EP4. The settings on record: membranes expressing human EP4; [3H]PGE2 1 nM; Cheng-Prusoff; read-out: pKi (M) EP4 (converted). The method, then: as §1

Another test concerns the target T3, human EP3 receptor (Homo sapiens, UniProt P43115).
T3 construct: expressed in transfected cells
T3 sequence (P43115 1-390): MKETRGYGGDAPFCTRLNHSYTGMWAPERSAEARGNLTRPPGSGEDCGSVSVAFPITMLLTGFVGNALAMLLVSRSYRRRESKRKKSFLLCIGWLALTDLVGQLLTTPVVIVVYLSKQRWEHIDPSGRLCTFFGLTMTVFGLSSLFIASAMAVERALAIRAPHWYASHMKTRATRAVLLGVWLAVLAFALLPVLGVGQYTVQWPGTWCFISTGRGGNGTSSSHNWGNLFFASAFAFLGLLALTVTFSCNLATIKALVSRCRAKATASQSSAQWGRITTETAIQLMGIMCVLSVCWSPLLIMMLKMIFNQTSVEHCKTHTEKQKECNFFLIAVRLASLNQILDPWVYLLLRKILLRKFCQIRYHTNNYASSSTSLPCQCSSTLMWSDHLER
In words: Binding ability to human EP receptors ([3H]PGE2 displacement), EP3. The settings on record: membranes expressing human EP3; [3H]PGE2 2.5 nM; Cheng-Prusoff; read-out: pKi (M) EP3 (converted). The method, then:
as §1

The target in test [1] is T4, human EP2 prostanoid receptors (Homo sapiens, UniProt P43116).
T4 construct: expressed in transfected cells; host or cells: HEK-293
The experiment in a line: Agonist activity at recombinant human EP2 prostanoid receptors (cAMP in HEK-293 clones). The settings on record: for EC50: HEK-293 stably transfected with human EP2, cAMP accumulation, read-out: pEC50 EP2 (converted); for activity (EP2 part): functional classification at EP2. Type of test: cell-based. The method, then: Culture media was Minimal essential media (MEM), supplemented with 10% foetal bovine serum, 100 U/ml penicillin, […] streptomycin, 2.5 μg/ml fungizone, 2mM glutamine. Cells were cultured to confluency (3-4 days) prior to use. Culture media was removed, and confluent cells washed three times in MEM. […] Cells were then stimulated by the addition of 25 μl of PGE2 or agonists prepared in assay buffer. In antagonist studies, cells were pre-incubated with compounds for 30 minutes prior to PGE2-mediated stimulation Plates were incubated for 15 min at 37° C., before termination of the reaction by the addition of 25 μl 1M HCl. The plate was then frozen at -20° C. overnight before determination of cAMP concentration. Stimulated cAMP levels were determined by radioligand displacement binding. In brief, plates were thawed rapidly in a waterbath, and the samples neutralised by the addition of 25 μl 1M NaOH. 30 μl was transferred to Millipore plates pre-coated with 0.5% Polyethylenimine (PEI). Samples were diluted by addition of 90 μl cAMP determination buffer (50 mM Tris, 5 mM EDTA, pH 7.0). […] 15 μl of 2 nM (final concentration) [^3H] cAMP, and 15 μl of 3'5'-cAMP protein kinase (8 μg/well final concentration) prepared in cAMP determination buffer containing 0.1% BSA, were added to each well. Plates were incubated on ice for 2 hours, before bound and free radiolabel were separated by vacuum filtration harvesting using the Millipore vacuum manifold, using ice cold water as the termination buffer. The sealing mat was removed from the Millipore plates, and the filters allowed to dry overnight. 50 μl Microscint 0 (Packard Bioscience) was added to each well, and the plate counted using the Micro-Beta Trilux topcount ^3H program. cAMP accumulation was determined from the standard curve, and values calculated in pmoles cAMP/well. Antagonists affinities (pA2 values) were determined assuming a slope of unity and the […]-Schild equation, where pA2=log [concentration ratio-1]-log[antagonist].
(Cyclic AMP is a second messenger, typically raised through Gs and lowered through Gi signalling.)

T2 sequence (P35408 whole entry): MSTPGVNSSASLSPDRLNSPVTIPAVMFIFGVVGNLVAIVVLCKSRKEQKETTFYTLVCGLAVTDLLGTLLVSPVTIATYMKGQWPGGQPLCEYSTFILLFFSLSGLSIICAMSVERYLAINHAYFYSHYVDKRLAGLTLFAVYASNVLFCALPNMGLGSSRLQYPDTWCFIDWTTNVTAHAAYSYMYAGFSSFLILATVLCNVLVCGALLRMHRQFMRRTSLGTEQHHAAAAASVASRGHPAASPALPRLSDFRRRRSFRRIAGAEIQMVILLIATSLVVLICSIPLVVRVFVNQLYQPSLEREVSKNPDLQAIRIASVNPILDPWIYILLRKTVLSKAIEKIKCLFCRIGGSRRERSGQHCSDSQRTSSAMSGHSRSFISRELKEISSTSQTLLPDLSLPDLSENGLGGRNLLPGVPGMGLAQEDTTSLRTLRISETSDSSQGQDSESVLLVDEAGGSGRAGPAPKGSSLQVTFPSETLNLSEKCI
T4 sequence (P43116 whole entry): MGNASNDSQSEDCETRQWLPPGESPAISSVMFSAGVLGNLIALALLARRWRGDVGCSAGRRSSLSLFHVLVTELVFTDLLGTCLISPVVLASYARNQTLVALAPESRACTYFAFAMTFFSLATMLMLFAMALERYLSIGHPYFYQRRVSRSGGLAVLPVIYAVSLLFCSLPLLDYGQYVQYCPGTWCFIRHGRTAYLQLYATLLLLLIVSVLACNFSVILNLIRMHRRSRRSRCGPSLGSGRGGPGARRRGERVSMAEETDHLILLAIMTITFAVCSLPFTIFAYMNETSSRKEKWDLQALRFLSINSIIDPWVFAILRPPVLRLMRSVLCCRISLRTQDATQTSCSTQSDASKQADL
T1 sequence (P43116 whole entry): as above

As to `O=C(O)Cc1cccc(NC(=O)c2ccc(-c3ccccc3)o2)c1` [Compound 10, (3-{[5-(phenyl)-furan-2-carbonyl]-amino}-phenyl)-acetic acid], the Ki on human EP2 receptor is under 1e-06 M; on human EP4 receptor, over 1e-05 M; on human EP3 receptor it was over 1e-05 M. The EC50 in test [1] is under 1 µM. In addition, in test [1], the “activity (EP2 part)” value is “EP2 agonist”.

On to `COc1ccc(-c2ccc(C(=O)Nc3cccc(CC(=O)O)c3)o2)cc1` [Compound 12, (3-[(5-(4-Methoxy-phenyl)-furan-2-carbonyl)-amino]-phenyl)-acetic acid], for which the Ki at human EP2 receptor was under 1e-06 M; on human EP4 receptor, over 1e-05 M; at human EP3 receptor it was over 1e-05 M. Further, the EC50 in test [1] is under 1 µM. Further, the “activity (EP2 part)” value in test [1] was “EP2 agonist”.

As to `CN(C)c1ccc(-c2ccc(C(=O)Nc3cccc(CC(=O)O)c3)o2)cc1` [Compound 14, (3-[(5-(4-Dimethylamino-phenyl)-furan-2-carbonyl)-amino]-phenyl)-acetic acid], the Ki on human EP2 receptor is under 1e-06 M; on human EP4 receptor, over 1e-05 M; at human EP3 receptor, over 1e-05 M. In addition, in test [1], the EC50 was under 10 µM. In test [1], the “activity (EP2 part)” value was “EP2 agonist”.

As to `COc1ccccc1-c1ccc(C(=O)Nc2cccc(CC(=O)O)c2)o1` [Compound 17, (3-{[5-(2-Methoxy-phenyl)-furan-2-carbonyl]-amino}-phenyl)-acetic acid], the figures for the Ki at human EP2 receptor, on human EP4 receptor and at human EP3 receptor were under 1e-06 M, over 1e-05 M and over 1e-05 M, respectively. The EC50 in test [1] was under 1 µM. Also, in test [1], the “activity (EP2 part)” value was “EP2 agonist”.

Turning to `COc1cccc(-c2ccc(C(=O)Nc3cccc(CC(=O)O)c3)o2)c1` [Compound 18, (3-{[5-(3-Methoxy-phenyl)-furan-2-carbonyl]-amino}-phenyl)-acetic acid], the values for the Ki on human EP2 receptor, at human EP4 receptor and at human EP3 receptor were under 1e-06 M, over 1e-05 M and over 1e-05 M, respectively. Also, the EC50 in test [1] was under 1 µM. Moreover, the “activity (EP2 part)” value in test [1] is recorded as “EP2 agonist”.

In the case of `CC(=O)c1cccc(-c2ccc(C(=O)Nc3cccc(CC(=O)O)c3)o2)c1` [Compound 19, (3-{[5-(3-Acetyl-phenyl)-furan-2-carbonyl]-amino}-phenyl)-acetic acid], the figures for the Ki on human EP2 receptor, on human EP4 receptor and at human EP3 receptor were under 1e-06 M, over 1e-05 M and over 1e-05 M, respectively. Also, in test [1], the EC50 was under 10 µM. The “activity (EP2 part)” value in test [1] is “EP2 agonist”.

On to `CC(=O)c1ccc(-c2ccc(C(=O)Nc3cccc(CC(=O)O)c3)o2)cc1` [Compound 20, (3-{[5-(4-Acetyl-phenyl)-furan-2-carbonyl]-amino}-phenyl)-acetic acid], for which the Ki on human EP2 receptor was under 1e-06 M; on human EP4 receptor, over 1e-05 M; at human EP3 receptor, over 1e-05 M. For the same compound, the EC50 in test [1] was under 10 µM. In addition, in test [1], the “activity (EP2 part)” value is recorded as “EP2 agonist”.

As to `Cc1cccc(-c2ccc(C(=O)Nc3cccc(CC(=O)O)c3)o2)c1` [Compound 21, (3-{[5-(3-Methyl-phenyl)-furan-2-carbonyl]-amino}-phenyl)-acetic acid], the Ki at human EP2 receptor was under 1e-06 M; at human EP4 receptor, over 1e-05 M; at human EP3 receptor it was over 1e-05 M. For the same compound, in test [1], the EC50 is under 1 µM. Besides, the “activity (EP2 part)” value in test [1] is given as “EP2 agonist”.

As for `O=C(O)Cc1cccc(NC(=O)c2ccc(-c3ccc(Cl)c(Cl)c3)o2)c1` [Compound 27, (3-{[5-(3,4-Dichloro-phenyl)-furan-2-carbonyl]-amino}-phenyl)-acetic acid], the Ki at human EP2 receptor was under 1e-07 M; at human EP4 receptor, over 1e-05 M; on human EP3 receptor, over 1e-05 M. Further, the EC50 in test [1] was under 0.1 µM. Also, the “activity (EP2 part)” value in test [1] is listed as “EP2 agonist”.

Regarding `O=C(O)Cc1cccc(NC(=O)c2ccc(-c3ccccc3Cl)o2)c1` [Compound 30, (3-{[5-(2-Chloro-phenyl)-furan-2-carbonyl]-amino}-phenyl)-acetic acid], the Ki on human EP2 receptor is under 1e-05 M; at human EP4 receptor, over 1e-05 M; on human EP3 receptor it was over 1e-05 M. Moreover, the EC50 in test [1] was under 1 µM. In addition, the “activity (EP2 part)” value in test [1] is reported as “EP2 Agonist”.

For `O=C(O)/C=C/c1cccc(NC(=O)c2ccc(-c3cccc(-c4ccccc4)c3)o2)c1` [Compound 103, 3-{3-[(5-Biphenyl-3-yl-furan-2-carbonyl)-amino]-phenyl}-acrylic acid], the Ki is under 1e-07 M on human EP2 receptor, under 1e-06 M on human EP4 receptor and over 1e-05 M at human EP3 receptor.

In the case of `O=C(O)/C=C/c1cccc(NC(=O)c2ccc(-c3cccc(OCc4ccccc4)c3)o2)c1` [Compound 104, 3-(3-{[5-(3-Benzyloxy-phenyl)-furan-2-carbonyl]-amino}-phenyl)-acrylic acid], the Ki on human EP2 receptor was under 1e-07 M; at human EP4 receptor, over 1e-05 M; on human EP3 receptor, over 1e-05 M.

On to `O=C(O)/C=C/c1cccc(NC(=O)c2ccc(-c3ccc(-c4ccccc4)c(F)c3)o2)c1` [Compound 105, 3-(3-{[5-(2-Fluoro-biphenyl-4-yl)-furan-2-carbonyl]-amino}-phenyl)-acrylic acid], for which the Ki is under 1e-06 M at human EP2 receptor, over 1e-05 M at human EP4 receptor and over 1e-05 M at human EP3 receptor.

Consider `O=C(O)/C=C/c1cccc(SCc2csc(-c3ccccc3)n2)c1` [Compound 122, 3-[3-(2-Phenyl-thiazol-4-ylmethylsulfanyl)-phenyl]-acrylic acid], for which the Ki at human EP2 receptor is under 1e-07 M; on human EP4 receptor, under 1e-06 M; on human EP3 receptor, over 1e-05 M.

Take `O=C(O)/C=C/c1cccc(NC(=O)c2ccc(C34CC5CC(CC(C5)C3)C4)o2)c1` [Compound 123, 3-{3-[(5-Adamantan-1-yl-furan-2-carbonyl)-amino]-phenyl}-acrylic acid]: the Ki on human EP2 receptor was under 1e-06 M; at human EP4 receptor it was over 1e-05 M; at human EP3 receptor, over 1e-05 M.

`O=C(Nc1cccc(OCc2nnn[nH]2)c1)c1cccc(-c2ccccc2)n1` [Compound 174, 6-Phenyl-pyridine-2-carboxylic acid [3-(1H-tetrazol-5-ylmethoxy)-phenyl]-amide]: the Ki at human EP2 receptor is under 1e-07 M; on human EP4 receptor, under 1e-06 M; at human EP3 receptor, over 1e-05 M.

For `O=C(Nc1cccc(/C=C/c2nnn[nH]2)c1)c1cccc(-c2ccccc2)n1` [Compound 175, 6-Phenyl-pyridine-2-carboxylic acid {3-[2-(1H-tetrazol-5-yl)-vinyl]phenyl}-amide], the Ki was under 1e-07 M on human EP2 receptor, under 1e-07 M on human EP4 receptor and over 1e-05 M at human EP3 receptor.

Regarding `O=C(Nc1cccc(/C=C/c2nnn[nH]2)c1)c1cc(-c2ccccc2)ccc1F` [Compound 176, 4-Fluoro-biphenyl-3-carboxylic acid {3-[2-(1H-tetrazol-5-yl)-vinyl]phenyl}-amide], the Ki on human EP2 receptor was under 1e-07 M; at human EP4 receptor, over 1e-05 M; at human EP3 receptor it was over 1e-05 M.
